Reference: ChEMBL document CHEMBL5212743, “Selectivity Literature for EUbOPEN Chemogenomics Library wave 3” (2023)
Values belong to the compound of their own block, whether it stands above or below them.

Key:
[1] = molecular target: 5-hydroxytryptamine receptor 3A (Homo sapiens) (UniProt P46098); assay: Selectivity interaction (GPCR panel (PDSP screen)) EUB0000293b HTR3A; conditions: at 10 µM
[2] = molecular target: Prostaglandin E2 receptor EP4 subtype (Homo sapiens, UniProt P35408); assay: Selectivity interaction (Eurofins-Panlabs radioligand binding assay ) EUB0000293b PTGER4; conditions: at 10 µM
[3] = molecular target: 5-hydroxytryptamine receptor 2C (Homo sapiens) (UniProt P28335); assay: Selectivity interaction (GPCR panel (PDSP screen)) EUB0000737a HTR2C; conditions: at 10 µM
[4] = molecular target: Casein kinase II subunit alpha' (Homo sapiens) (UniProt P19784); assay: Selectivity interaction (Kinase panel (Eurofins)) EUB0000320b CSNK2A2; conditions: at 1 µM
[5] = molecular target: T1, Alpha-1A adrenergic receptor (Homo sapiens) (UniProt P35348); assay: Selectivity interaction (Lead profiling screen (Eurofins, panel of GPCRs, transporters, nuclear receptors, and other enzymes)) EUB0000320b ADRA1A; conditions: at 10 µM
T1 sequence (whole entry): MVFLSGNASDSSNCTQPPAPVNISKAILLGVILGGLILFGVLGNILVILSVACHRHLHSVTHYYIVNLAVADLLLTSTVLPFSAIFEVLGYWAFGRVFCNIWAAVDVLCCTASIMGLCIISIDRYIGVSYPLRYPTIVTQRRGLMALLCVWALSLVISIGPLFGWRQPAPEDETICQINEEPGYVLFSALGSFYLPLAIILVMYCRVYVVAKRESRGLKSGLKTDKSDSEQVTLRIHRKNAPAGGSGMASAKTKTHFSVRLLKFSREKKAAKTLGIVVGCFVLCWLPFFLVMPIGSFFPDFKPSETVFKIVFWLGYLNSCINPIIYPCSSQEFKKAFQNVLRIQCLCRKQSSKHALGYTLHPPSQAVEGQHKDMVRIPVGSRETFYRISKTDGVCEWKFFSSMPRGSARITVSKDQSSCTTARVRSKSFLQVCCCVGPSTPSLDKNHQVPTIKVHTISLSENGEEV

[6] = molecular target: 5-hydroxytryptamine receptor 2B (Homo sapiens, UniProt P41595); assay: Selectivity interaction (Lead profiling screen (Eurofins, panel of GPCRs, transporters, nuclear receptors, and other enzymes)) EUB0000320b HTR2B; conditions: at 10 µM
[7] = molecular target: 5-hydroxytryptamine receptor 2A (Homo sapiens, UniProt P28223); assay: Selectivity interaction (Lead profiling screen (Eurofins, panel of GPCRs, transporters, nuclear receptors, and other enzymes)) EUB0000320b HTR2A; conditions: at 10 µM
[8] = tested on: Receptor-type tyrosine-protein kinase FLT3 (Homo sapiens), P36888 [UNDEFINED MUTATION]; assay: Selectivity interaction (KinomeScan (DiscoverX)) EUB0000320b FLT3; conditions: at 1 µM
[9] = molecular target: 5-hydroxytryptamine receptor 2C (Homo sapiens) (UniProt P28335); assay: Selectivity interaction (Lead profiling screen (Eurofins, panel of GPCRs, transporters, nuclear receptors, and other enzymes)) EUB0000320b HTR2C; conditions: at 10 µM
[10] = molecular target: T2, Myosin-IIIb (Homo sapiens) (UniProt Q8WXR4); assay: Selectivity interaction (KinomeScan (DiscoverX)) EUB0000320b MYO3B; conditions: at 1 µM
T2 sequence (whole entry): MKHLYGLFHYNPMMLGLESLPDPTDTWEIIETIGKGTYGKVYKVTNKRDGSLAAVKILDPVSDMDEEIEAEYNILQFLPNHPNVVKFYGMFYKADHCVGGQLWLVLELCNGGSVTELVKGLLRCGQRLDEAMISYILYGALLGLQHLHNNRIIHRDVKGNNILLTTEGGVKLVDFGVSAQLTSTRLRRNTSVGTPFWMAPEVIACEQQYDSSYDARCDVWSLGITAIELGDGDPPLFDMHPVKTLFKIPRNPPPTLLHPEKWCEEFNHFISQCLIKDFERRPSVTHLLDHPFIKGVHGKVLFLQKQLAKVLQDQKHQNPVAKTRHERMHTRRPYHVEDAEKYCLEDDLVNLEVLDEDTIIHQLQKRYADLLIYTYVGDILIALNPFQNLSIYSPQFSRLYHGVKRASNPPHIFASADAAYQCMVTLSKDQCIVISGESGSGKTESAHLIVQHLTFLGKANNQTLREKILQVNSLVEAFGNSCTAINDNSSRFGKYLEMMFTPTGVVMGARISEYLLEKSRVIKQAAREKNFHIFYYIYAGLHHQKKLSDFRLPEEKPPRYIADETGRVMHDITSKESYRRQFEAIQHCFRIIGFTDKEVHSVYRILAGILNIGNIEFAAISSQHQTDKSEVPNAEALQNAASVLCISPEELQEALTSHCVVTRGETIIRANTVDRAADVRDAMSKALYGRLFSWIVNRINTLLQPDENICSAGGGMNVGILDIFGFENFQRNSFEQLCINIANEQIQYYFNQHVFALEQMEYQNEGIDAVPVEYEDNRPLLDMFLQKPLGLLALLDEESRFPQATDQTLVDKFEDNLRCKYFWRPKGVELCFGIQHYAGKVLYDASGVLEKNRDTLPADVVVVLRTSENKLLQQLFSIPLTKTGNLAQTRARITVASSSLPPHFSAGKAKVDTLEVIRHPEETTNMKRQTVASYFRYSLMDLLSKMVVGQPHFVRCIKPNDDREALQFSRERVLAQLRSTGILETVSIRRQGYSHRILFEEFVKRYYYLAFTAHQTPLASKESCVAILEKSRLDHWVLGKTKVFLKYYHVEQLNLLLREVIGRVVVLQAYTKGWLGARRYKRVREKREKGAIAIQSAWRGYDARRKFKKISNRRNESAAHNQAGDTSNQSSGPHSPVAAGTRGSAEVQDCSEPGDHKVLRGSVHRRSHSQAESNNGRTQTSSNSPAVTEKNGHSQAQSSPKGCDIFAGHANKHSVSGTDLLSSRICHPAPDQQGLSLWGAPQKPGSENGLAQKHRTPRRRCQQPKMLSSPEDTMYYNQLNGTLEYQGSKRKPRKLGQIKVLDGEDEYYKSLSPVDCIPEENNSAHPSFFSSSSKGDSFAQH

[11] = molecular target: Kappa-type opioid receptor (Homo sapiens, UniProt P41145); assay: Selectivity interaction (Lead profiling screen (Eurofins, panel of GPCRs, transporters, nuclear receptors, and other enzymes)) EUB0000320b OPRK1; conditions: at 10 µM
[12] = molecular target: Serine/threonine-protein kinase 33 (Homo sapiens, UniProt Q9BYT3); assay: Selectivity interaction (KinomeScan (DiscoverX)) EUB0000320b STK33; conditions: at 1 µM
[13] = molecular target: T3, Cytoplasmic tyrosine-protein kinase BMX (Homo sapiens) (UniProt P51813); assay: Selectivity interaction (KinomeScan (DiscoverX)) EUB0000320b BMX; conditions: at 1 µM
T3 sequence (whole entry): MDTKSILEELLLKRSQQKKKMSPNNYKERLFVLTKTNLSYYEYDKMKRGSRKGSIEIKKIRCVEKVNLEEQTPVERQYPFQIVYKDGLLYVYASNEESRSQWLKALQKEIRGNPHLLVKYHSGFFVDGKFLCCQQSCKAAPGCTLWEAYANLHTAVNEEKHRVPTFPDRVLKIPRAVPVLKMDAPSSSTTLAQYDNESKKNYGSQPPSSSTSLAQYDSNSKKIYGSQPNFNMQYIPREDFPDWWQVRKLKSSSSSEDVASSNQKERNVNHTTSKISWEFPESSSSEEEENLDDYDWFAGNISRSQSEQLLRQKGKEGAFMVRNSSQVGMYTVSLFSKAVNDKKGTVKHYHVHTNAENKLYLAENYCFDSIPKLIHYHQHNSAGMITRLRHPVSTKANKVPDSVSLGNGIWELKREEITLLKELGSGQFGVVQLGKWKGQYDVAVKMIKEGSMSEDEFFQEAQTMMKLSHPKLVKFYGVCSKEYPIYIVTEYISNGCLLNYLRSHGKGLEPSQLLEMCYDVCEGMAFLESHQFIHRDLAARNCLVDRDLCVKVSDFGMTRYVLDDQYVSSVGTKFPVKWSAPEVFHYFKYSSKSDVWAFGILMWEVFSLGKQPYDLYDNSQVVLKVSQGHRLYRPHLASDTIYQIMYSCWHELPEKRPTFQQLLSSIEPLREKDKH

[14] = tested on: Phosphatidylinositol 4,5-bisphosphate 3-kinase catalytic subunit alpha isoform (Homo sapiens), P42336 [Q546K]; assay: (§1) Selectivity interaction (KinomeScan (DiscoverX)) EUB0000251b PIK3CA; conditions: at 1 µM
[15] = tested on: Phosphatidylinositol 4,5-bisphosphate 3-kinase catalytic subunit alpha isoform (Homo sapiens), P42336 [E542K]; assay: as §1; conditions: at 1 µM
Histamine H1 receptor = Histamine H1 receptor (Homo sapiens, UniProt P35367); assay: Selectivity interaction (GPCR panel (PDSP screen)) EUB0000251b HRH1; conditions: at 10 µM
[16] = molecular target: T4, Sigma intracellular receptor 2 (Homo sapiens, UniProt Q5BJF2); assay: Selectivity interaction (GPCR panel (PDSP screen)) EUB0000251b TMEM97; conditions: at 10 µM
[17] = molecular target: Serine/threonine-protein kinase ULK3 (Homo sapiens) (UniProt Q6PHR2); assay: Selectivity interaction (KinomeScan (DiscoverX)) EUB0000708a ULK3; conditions: at 1 µM
[18] = molecular target: Serine/threonine-protein kinase SBK1 (Homo sapiens) (UniProt Q52WX2); assay: Selectivity interaction (KinomeScan (DiscoverX)) EUB0000708a SBK1; conditions: at 1 µM
[19] = molecular target: T4, Sigma intracellular receptor 2; assay: Selectivity interaction (GPCR panel (PDSP screen)) EUB0000333a TMEM97; conditions: at 10 µM
[20] = molecular target: eIF-2-alpha kinase GCN2 (Homo sapiens) (UniProt Q9P2K8); assay: Selectivity interaction (KinomeScan (DiscoverX)) EUB0000333a EIF2AK4; conditions: at 1 µM
[21] = molecular target: P2Y purinoceptor 2 (Homo sapiens) (UniProt P41231); assay: Selectivity interaction (GPCR panel (Eurofins-Cerep)) EUB0000333a P2RY2; conditions: at 10 µM
[22] = molecular target: Serine/threonine-protein kinase ICK (Homo sapiens) (UniProt Q9UPZ9); assay: Selectivity interaction (KinomeScan (DiscoverX)) EUB0000333a ICK; conditions: at 1 µM
[23] = molecular target: T5, Muscarinic acetylcholine receptor M2 (Homo sapiens) (UniProt P08172); assay: Selectivity interaction (GPCR panel (PDSP screen)) EUB0000333a CHRM2; conditions: at 10 µM
T5 sequence (whole entry): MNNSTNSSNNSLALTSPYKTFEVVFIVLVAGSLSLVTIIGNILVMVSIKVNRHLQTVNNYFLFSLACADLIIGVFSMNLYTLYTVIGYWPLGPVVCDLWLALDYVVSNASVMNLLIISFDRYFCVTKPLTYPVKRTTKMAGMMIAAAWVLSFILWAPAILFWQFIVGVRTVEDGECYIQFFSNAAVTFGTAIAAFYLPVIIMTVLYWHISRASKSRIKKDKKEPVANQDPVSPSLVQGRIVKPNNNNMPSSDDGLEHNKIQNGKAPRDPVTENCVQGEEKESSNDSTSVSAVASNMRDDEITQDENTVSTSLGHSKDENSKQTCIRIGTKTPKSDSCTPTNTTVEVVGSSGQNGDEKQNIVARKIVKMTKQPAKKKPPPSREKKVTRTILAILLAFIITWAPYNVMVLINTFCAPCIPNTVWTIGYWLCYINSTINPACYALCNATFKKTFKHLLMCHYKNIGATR

Sequence of 5-hydroxytryptamine receptor 2C (Homo sapiens) (P28335 whole entry): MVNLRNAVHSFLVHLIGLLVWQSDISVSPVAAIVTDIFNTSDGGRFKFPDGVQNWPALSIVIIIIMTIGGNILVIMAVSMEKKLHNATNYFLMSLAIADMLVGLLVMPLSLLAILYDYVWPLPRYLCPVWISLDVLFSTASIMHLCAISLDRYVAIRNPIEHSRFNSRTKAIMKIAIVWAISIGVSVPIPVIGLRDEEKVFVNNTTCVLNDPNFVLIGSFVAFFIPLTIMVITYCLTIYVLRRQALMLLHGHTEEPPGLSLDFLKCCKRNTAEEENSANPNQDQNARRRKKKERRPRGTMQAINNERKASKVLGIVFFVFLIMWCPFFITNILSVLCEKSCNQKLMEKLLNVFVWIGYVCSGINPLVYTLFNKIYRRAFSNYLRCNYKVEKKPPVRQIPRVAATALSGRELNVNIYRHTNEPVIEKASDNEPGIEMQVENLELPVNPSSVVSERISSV
T4 sequence (Q5BJF2 whole entry): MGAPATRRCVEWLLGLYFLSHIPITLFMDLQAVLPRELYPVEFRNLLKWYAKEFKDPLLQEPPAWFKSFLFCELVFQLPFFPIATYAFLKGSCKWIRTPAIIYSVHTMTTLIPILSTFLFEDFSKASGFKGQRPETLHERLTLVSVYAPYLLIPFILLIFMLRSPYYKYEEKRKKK
Sequence of Serine/threonine-protein kinase SBK1 (Homo sapiens) (Q52WX2 whole entry): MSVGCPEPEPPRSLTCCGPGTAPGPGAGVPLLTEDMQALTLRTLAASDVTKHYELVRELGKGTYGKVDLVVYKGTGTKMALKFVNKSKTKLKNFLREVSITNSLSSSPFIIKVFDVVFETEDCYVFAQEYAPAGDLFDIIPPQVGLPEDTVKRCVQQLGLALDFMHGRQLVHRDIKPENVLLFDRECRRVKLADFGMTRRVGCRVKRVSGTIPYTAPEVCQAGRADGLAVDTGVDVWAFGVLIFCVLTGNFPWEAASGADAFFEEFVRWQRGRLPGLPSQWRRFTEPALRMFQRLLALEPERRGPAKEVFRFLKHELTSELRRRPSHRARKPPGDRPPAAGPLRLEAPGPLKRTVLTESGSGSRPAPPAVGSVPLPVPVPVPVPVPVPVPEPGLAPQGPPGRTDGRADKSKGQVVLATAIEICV
Sequence of Serine/threonine-protein kinase ULK3 (Homo sapiens) (Q6PHR2 whole entry): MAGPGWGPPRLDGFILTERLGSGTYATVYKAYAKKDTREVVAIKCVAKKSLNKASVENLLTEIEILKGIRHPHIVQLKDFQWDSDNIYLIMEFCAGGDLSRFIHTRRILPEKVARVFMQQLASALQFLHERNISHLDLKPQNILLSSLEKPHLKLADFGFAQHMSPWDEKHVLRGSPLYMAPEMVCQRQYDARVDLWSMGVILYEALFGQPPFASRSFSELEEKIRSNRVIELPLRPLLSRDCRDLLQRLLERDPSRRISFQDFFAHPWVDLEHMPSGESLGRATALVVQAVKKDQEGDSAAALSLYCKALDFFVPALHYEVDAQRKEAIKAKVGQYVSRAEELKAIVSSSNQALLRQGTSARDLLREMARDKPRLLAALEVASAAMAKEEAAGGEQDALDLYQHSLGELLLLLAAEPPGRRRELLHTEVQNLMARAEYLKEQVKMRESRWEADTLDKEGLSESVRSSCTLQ
Sequence of Kappa-type opioid receptor (P41145 whole entry): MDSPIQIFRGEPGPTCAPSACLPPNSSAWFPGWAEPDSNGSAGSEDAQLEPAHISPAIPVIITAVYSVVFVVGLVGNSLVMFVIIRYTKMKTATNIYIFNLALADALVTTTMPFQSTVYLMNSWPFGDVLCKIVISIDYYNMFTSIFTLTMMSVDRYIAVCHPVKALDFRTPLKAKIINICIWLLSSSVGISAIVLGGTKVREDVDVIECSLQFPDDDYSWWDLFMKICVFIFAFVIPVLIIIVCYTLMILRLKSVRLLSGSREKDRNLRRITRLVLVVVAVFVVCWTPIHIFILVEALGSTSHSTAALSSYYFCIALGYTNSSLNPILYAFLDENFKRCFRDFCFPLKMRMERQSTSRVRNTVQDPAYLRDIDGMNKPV
Sequence of Phosphatidylinositol 4,5-bisphosphate 3-kinase catalytic subunit alpha isoform (Homo sapiens), P42336 [Q546K] (P42336 whole entry Q546K, canonical isoform): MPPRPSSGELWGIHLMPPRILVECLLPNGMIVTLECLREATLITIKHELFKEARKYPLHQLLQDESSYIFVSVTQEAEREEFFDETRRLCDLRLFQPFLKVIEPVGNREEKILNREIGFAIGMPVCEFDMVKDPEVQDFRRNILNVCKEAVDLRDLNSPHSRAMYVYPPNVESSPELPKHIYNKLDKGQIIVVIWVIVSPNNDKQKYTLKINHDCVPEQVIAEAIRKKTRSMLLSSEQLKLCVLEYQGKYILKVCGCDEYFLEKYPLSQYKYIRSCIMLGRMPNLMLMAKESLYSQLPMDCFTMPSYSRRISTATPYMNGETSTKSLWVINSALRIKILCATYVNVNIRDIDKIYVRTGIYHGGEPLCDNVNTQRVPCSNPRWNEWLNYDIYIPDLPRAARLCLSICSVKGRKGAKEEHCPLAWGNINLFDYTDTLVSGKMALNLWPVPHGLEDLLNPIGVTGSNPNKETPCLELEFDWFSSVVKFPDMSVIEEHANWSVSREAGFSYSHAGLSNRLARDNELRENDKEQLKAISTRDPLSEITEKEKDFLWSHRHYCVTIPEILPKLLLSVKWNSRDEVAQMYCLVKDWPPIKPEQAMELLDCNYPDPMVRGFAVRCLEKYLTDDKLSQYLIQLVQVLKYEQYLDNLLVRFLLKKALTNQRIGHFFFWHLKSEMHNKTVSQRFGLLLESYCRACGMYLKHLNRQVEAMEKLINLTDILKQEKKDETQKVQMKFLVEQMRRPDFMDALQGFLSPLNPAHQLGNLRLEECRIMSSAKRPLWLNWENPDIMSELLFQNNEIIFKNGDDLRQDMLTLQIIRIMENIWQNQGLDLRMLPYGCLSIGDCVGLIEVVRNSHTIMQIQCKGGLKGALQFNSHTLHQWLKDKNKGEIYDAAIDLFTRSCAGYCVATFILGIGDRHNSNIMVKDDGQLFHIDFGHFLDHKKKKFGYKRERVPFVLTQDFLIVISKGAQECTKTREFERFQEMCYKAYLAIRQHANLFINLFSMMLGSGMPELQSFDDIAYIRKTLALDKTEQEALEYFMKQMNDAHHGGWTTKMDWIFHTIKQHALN
Sequence of Phosphatidylinositol 4,5-bisphosphate 3-kinase catalytic subunit alpha isoform (Homo sapiens), P42336 [E542K] (P42336 whole entry E542K, canonical isoform): as the sequence (P42336 whole entry Q546K, canonical isoform) above, with E542K, K546Q counted along it
Sequence of Receptor-type tyrosine-protein kinase FLT3 (Homo sapiens), P36888 [UNDEFINED MUTATION] (P36888 whole entry, looked up, stated change not applied): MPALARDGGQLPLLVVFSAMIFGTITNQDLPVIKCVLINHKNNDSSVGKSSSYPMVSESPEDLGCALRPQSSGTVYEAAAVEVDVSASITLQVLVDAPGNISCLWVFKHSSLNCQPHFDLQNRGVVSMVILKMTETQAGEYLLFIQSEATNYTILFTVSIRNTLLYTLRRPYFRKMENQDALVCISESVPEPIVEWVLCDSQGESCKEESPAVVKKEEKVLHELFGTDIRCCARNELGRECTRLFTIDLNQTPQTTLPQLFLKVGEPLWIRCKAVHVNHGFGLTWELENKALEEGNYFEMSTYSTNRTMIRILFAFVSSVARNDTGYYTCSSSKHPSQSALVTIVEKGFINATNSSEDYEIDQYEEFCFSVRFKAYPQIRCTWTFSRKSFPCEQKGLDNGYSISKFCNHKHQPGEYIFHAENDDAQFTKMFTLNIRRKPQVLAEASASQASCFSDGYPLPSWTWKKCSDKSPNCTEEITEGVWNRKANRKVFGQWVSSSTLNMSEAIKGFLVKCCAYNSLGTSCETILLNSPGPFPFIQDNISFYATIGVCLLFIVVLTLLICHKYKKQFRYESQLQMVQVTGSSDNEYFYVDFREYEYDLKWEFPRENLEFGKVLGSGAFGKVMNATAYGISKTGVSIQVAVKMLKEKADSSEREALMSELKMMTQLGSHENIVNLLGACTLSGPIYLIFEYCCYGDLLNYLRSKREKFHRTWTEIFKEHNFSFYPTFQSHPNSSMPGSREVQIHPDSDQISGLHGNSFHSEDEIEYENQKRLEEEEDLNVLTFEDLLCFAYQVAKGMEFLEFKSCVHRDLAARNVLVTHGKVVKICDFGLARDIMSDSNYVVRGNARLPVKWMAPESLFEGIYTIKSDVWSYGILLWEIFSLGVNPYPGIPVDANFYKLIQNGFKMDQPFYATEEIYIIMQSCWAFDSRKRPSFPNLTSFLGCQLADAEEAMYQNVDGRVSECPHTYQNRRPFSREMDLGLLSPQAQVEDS

Structure (SMILES): CC1=C(C#N)C(c2ccc3[nH]nc(C)c3c2)C(C#N)=C(C)N1
% of control [1]: 33%
% of inhibition [2]: 19%

Structure (SMILES): CNCc1ccccc1-c1csc([C@@H](C)Nc2nc(C)nc3cc(OC)c(OC)cc23)c1
% of control [4]: 67%
% of inhibition [5]: 106%
% of inhibition [6]: 100%
% of inhibition [7]: 110%
% of control [8]: 48%
% of inhibition [9]: 104%
% of control [10]: 47%
% of inhibition [11]: 105%
% of control [12]: 45%
% of control [13]: 49%

Structure (SMILES): Cc1c(NC(=O)c2cc(C(N)=O)nc3cc(F)ccc23)c(C(F)(F)F)nn1Cc1ccc(C(C)(C)C)cc1
% of control [14]: 32%
% of control [15]: 43%
% of inhibition (Histamine H1 receptor): 46%
% of inhibition [16]: 41%

Structure (SMILES): Cc1nc(C2CCN(C(=O)c3ccc(OC(F)(F)F)cc3N)CC2)c2ncc(N3CCN(C)CC3)cc2n1
% of control [17]: 46%
% of control [18]: 40%

Second part, the compound after the results:

% of inhibition [3]: 29%
Structure (SMILES): CC(=O)C1=C(C)N(c2cccc(C(F)(F)F)c2)C(=O)N[C@H]1c1ccc(C#N)nc1

inhibition [19]: 42%
% of control [20]: 28%
inhibition [21]: 29%
% of control [22]: 62%
inhibition [23]: 39%
Structure (SMILES): Cc1noc([C@H]2C[C@@H](c3ccc(C(F)(F)F)cc3)CN(C(=O)N3CCS(=O)(=O)C3)C2)n1
